Results taken from PMC4220016, “The binding characteristics and orientation of a novel radioligand with distinct properties at 5-HT3A and 5-HT3AB receptors” (Neuropharmacology, 2014).
Where two headings read alike, the source gives them in different places.

Tests used:
5-HT3A receptors [1] = biological target: T1, 5-HT3A receptors (Homo sapiens, UniProt P46098)
T1 sequence (P46098 24-478): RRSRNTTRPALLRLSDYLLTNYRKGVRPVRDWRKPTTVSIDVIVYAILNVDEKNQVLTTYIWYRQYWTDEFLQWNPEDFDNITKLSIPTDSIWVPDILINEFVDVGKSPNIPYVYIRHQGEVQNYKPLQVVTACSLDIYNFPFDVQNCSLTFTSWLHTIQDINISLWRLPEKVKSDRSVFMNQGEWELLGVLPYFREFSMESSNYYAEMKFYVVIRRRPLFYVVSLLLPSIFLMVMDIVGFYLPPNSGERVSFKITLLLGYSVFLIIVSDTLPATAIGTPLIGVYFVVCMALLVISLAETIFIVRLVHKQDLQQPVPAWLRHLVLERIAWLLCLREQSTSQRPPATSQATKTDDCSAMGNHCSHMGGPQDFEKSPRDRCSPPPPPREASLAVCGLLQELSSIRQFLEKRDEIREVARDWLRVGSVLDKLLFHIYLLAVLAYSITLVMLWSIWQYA

5-HT3AB receptors [2] = biological target: T2, 5-HT3AB receptors (Homo sapiens, UniProt O95264+P46098); test: Competition binding with [^3H]VUF10166 at 5-HT3AB receptors
T2 sequence (P46098 24-478): T1 sequence (P46098 24-478)
T2 sequence (O95264 22-441): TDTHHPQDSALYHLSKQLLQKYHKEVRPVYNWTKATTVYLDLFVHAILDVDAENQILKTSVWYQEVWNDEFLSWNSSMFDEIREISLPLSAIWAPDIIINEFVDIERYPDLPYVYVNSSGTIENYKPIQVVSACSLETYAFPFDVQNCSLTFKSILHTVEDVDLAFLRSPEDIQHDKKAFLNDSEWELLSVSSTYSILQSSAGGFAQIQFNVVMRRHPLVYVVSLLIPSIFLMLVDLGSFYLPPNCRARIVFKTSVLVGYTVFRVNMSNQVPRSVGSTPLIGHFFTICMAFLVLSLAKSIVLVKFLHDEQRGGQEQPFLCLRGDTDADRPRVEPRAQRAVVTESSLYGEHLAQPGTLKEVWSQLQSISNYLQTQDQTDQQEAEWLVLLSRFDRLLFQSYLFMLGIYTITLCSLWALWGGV

5-HT3A receptors [3] = biological target: T1, 5-HT3A receptors; test: Competition binding with [^3H]VUF10166 at 5-HT3A receptors
5-HT3AB receptors [4] = biological target: T2, 5-HT3AB receptors; test: biochemical
5-HT3A receptors [5] = biological target: T1, 5-HT3A receptors; test: biochemical
5-HT3A receptors [6] = biological target: T1, 5-HT3A receptors; test: biochemical; format: binding; parameters: expressed in transfected cells; host or cells: HEK 293; conditions: 5-HT3A
α7 nACh receptors = α7 nACh receptors (Homo sapiens, UniProt P36544); test: Saturation binding of [^3H]VUF10166 on α7 nACh receptors; conditions: data not shown
5-HT3A receptor L126C = biological target: T3, 5-HT3A receptor L126C (Homo sapiens, UniProt P46098, L121C); test: Saturation binding of [^3H]VUF10166 at 5-HT3A receptor mutant; conditions: L126C Kd versus wild type
T3 construct: expressed in transfected cells; host or cells: HEK 293
Method: (§1) Mutagenesis was performed using the QuikChange method (Agilent Technologies Inc., California, USA) on human 5-HT3A cDNA (accession number: P46098) cloned into pcDNA3.1 (Invitrogen, Paisley, UK). Cysteine residues were substituted for amino acids throughout each of the binding loops A–E (Fig. 1). To facilitate comparisons with previous work, we use the numbering of the equivalent residues in the mouse 5-HT3A subunit; for human numbering 5 should be subtracted from each residue number.
(§2) All data were analysed using GraphPad Prism 4.03. […].

5-HT3A receptor F226C = biological target: T4, 5-HT3A receptor F226C (Homo sapiens, UniProt P46098, F221C); test: as above; conditions: F226C Kd versus wild type
T4 construct: expressed in transfected cells; host or cells: HEK 293
Method: as §1, §2

5-HT3A receptor Y153C = biological target: T5, 5-HT3A receptor Y153C (Homo sapiens, UniProt P46098, Y148C); test: as above; conditions: Y153C Kd versus wild type
T5 construct: expressed in transfected cells; host or cells: HEK 293
Method: as §1, §2

5-HT3A receptor S114C = biological target: T6, 5-HT3A receptor S114C (Homo sapiens, UniProt P46098, S109C); test: as above; conditions: S114C Kd versus wild type
T6 construct: expressed in transfected cells; host or cells: HEK 293
Method: as §1
(§3) All data were analysed using GraphPad Prism 4.03.

5-HT3A receptor Q151C = biological target: T7, 5-HT3A receptor Q151C (Homo sapiens, UniProt P46098, Q146C); test: as above; conditions: Q151C Kd versus wild type
T7 construct: expressed in transfected cells; host or cells: HEK 293
Method: as §1, §3

5-HT3A receptor N232C = biological target: T8, 5-HT3A receptor N232C (Homo sapiens, UniProt P46098, N227C); test: as above; conditions: N232C Kd versus wild type
T8 construct: expressed in transfected cells; host or cells: HEK 293
Method: as §1, §3

5-HT3A receptor I71C = biological target: T9, 5-HT3A receptor I71C (Homo sapiens, UniProt P46098, I66C); test: as above; conditions: I71C Kd versus wild type
T9 construct: expressed in transfected cells; host or cells: HEK 293
Method: as §1, §3

5-HT3A receptor H185C = biological target: T10, 5-HT3A receptor H185C (Homo sapiens, UniProt P46098, H180C); test: as above; conditions: H185C Kd versus wild type
T10 construct: expressed in transfected cells; host or cells: HEK 293
Method: as §1, §3

5-HT3A receptor K112C = biological target: T11, 5-HT3A receptor K112C (Homo sapiens, UniProt P46098, K107C); test: as above; conditions: K112C Kd versus wild type
T11 construct: expressed in transfected cells; host or cells: HEK 293
Method: as §1, §3

5-HT3A receptor R92C = biological target: T12, 5-HT3A receptor R92C (Homo sapiens, UniProt P46098, R87C); test: as above; conditions: R92C Kd versus wild type
T12 construct: expressed in transfected cells; host or cells: HEK 293
Method: as §1, §3

5-HT3A receptor N128C = biological target: T13, 5-HT3A receptor N128C (Homo sapiens, UniProt P46098, N123C); test: as above; conditions: N128C Kd versus wild type
T13 construct: expressed in transfected cells; host or cells: HEK 293
Method: as §1, §3

5-HT3A receptor R145C = biological target: T14, 5-HT3A receptor R145C (Homo sapiens, UniProt P46098, R140C); test: as above; conditions: R145C Kd versus wild type
T14 construct: expressed in transfected cells; host or cells: HEK 293
Method: as §1, §3

5-HT3A receptor I139C = biological target: T15, 5-HT3A receptor I139C (Homo sapiens, UniProt P46098, I134C); test: as above; conditions: I139C Kd versus wild type
T15 construct: expressed in transfected cells; host or cells: HEK 293
Method: as §1, §3

5-HT3A receptors [7] = biological target: T1, 5-HT3A receptors; test: Kinetic measurements (association, dissociation) at 5-HT3A receptors; format: binding; parameters: expressed in transfected cells; host or cells: HEK 293
5-HT3AB receptors [8] = biological target: T2, 5-HT3AB receptors; test: Kinetic measurements (association, dissociation) at 5-HT3AB receptors; format: binding; parameters: expressed in transfected cells; host or cells: HEK 293; conditions: for koff: from kobs plot
5-HT3A receptors [9] = test system: 5-HT3A receptors; parameters: method as in Nakamura et al., 2013; conditions: ref Nakamura et al., 2013; cited from earlier work
5-HT3AB receptors [10] = test system: 5-HT3AB receptors; parameters: method as in Nakamura et al., 2013; conditions: ref Nakamura et al., 2013; cited from earlier work

T5 sequence (P46098 24-478 Y148C): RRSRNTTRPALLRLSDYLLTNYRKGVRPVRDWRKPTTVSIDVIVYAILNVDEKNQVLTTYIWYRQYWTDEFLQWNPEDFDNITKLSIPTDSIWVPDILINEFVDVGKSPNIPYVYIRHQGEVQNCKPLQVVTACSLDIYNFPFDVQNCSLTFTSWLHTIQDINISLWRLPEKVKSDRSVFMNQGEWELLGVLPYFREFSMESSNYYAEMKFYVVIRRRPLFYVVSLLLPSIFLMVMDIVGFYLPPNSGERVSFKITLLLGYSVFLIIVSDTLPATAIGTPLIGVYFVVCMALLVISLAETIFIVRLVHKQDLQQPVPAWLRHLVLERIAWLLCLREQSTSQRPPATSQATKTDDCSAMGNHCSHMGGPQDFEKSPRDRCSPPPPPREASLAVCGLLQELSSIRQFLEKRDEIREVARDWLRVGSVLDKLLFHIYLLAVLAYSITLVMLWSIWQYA
T10 sequence (P46098 24-478 H180C): as the sequence (P46098 24-478 Y148C) above, with C125Y, H157C counted along it
T4 sequence (P46098 24-478 F221C): as the sequence (P46098 24-478 Y148C) above, with C125Y, F198C counted along it
T12 sequence (P46098 24-478 R87C): as the sequence (P46098 24-478 Y148C) above, with R64C, C125Y counted along it
T9 sequence (P46098 24-478 I66C): as the sequence (P46098 24-478 Y148C) above, with I43C, C125Y counted along it
α7 nACh receptors, sequence (P36544 23-502): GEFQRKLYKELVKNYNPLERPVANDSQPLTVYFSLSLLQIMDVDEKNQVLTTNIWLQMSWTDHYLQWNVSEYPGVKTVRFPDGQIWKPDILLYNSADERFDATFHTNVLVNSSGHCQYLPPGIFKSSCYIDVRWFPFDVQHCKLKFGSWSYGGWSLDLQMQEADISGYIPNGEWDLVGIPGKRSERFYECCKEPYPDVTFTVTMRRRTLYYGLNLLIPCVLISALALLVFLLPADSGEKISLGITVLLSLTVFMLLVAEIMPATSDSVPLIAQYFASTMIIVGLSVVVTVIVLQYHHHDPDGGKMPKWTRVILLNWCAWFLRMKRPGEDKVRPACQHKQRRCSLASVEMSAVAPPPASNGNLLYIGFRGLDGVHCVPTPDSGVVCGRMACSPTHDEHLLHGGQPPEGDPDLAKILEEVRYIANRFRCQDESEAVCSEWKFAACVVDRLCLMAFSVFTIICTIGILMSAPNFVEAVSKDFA
T13 sequence (P46098 24-478 N123C): as the sequence (P46098 24-478 Y148C) above, with N100C, C125Y counted along it
T6 sequence (P46098 24-478 S109C): as the sequence (P46098 24-478 Y148C) above, with S86C, C125Y counted along it
T3 sequence (P46098 24-478 L121C): as the sequence (P46098 24-478 Y148C) above, with L98C, C125Y counted along it
T8 sequence (P46098 24-478 N227C): as the sequence (P46098 24-478 Y148C) above, with C125Y, N204C counted along it
T11 sequence (P46098 24-478 K107C): as the sequence (P46098 24-478 Y148C) above, with K84C, C125Y counted along it
T14 sequence (P46098 24-478 R140C): as the sequence (P46098 24-478 Y148C) above, with R117C, C125Y counted along it
T7 sequence (P46098 24-478 Q146C): as the sequence (P46098 24-478 Y148C) above, with Q123C, C125Y counted along it
T15 sequence (P46098 24-478 I134C): as the sequence (P46098 24-478 Y148C) above, with I111C, C125Y counted along it

With `CN1CCC[C@H]1c1cccnc1` [Nicotine] the “competition with [^3H]granisetron (in words)” value (5-HT3A receptors [1]) was “competed”, the IC50 (5-HT3AB receptors [2]) was 174 nM and the IC50 (5-HT3A receptors [3]) was 155 nM. For the same compound, the IC50 (5-HT3AB receptors [4]) was 275 nM and the IC50 (5-HT3A receptors [5]) was 977 nM.

For `c1ccc2nc(N3CCNCC3)ccc2c1` [Quipazine], the “inhibition of specific [^3H]VUF10166 binding (in words)” value (“inhibition of specific” for short) (5-HT3AB receptors [2]; 5-HT3AB) was “inhibited” and the “inhibition of specific” value (5-HT3A receptors [3]; 5-HT3A) was “inhibited”.

With `O=C1C[C@@H]2OCC=C3CN4CC[C@]56c7ccccc7N1[C@H]5[C@H]2[C@H]3C[C@H]46` [Strychnine] the “competition with [^3H]granisetron (in words)” value (5-HT3A receptors [1]) was “competed”, the IC50 (5-HT3AB receptors [2]) was 550 nM and the IC50 (5-HT3A receptors [3]) was 1480 nM. For the same compound, the IC50 (5-HT3AB receptors [4]) was 14100 nM and the IC50 (5-HT3A receptors [5]) was 50100 nM.

With `[3H]CN1CCN(c2nc3ccccc3nc2Cl)CC1` [[^3H]VUF10166, 2-chloro-3-(4-[^3H]methylpiperazin-1-yl)quinoxaline] the non-specific binding (5-HT3A receptors [6]; non-specific binding determined with 2 mM quipazine) was < 5%, the Bmax (5-HT3A receptors [6]; paired samples) was 2229 ± 158 fmol/mg and the “specific saturable binding (in words)” value (α7 nACh receptors) was “no specific saturable binding”.

`[3H]CN1CCN(c2nc3ccccc3nc2Cl)CC1` [[^3H]VUF10166] [2-chloro-3-(4-[^3H]methylpiperazin-1-yl)quinoxaline] showed a Fold change (5-HT3A receptor L126C) of 4.2, a Fold change (5-HT3A receptor F226C) of 7.6 and a Fold change (5-HT3A receptor Y153C) of 9.7. The Fold change (5-HT3A receptor S114C) was 1.0, the Fold change (5-HT3A receptor Q151C) was 8.7 and the Fold change (5-HT3A receptor N232C) was 9.0. For the same compound, the Fold change (5-HT3A receptor I71C) was 1.1, the Fold change (5-HT3A receptor H185C) was 4.5 and the Fold change (5-HT3A receptor K112C) was 1.6. The Fold change (5-HT3A receptor R92C) was 4.2, the Fold change (5-HT3A receptor N128C) was 3.3 and the Fold change (5-HT3A receptor R145C) was 4.6. For the same compound, the Fold change (5-HT3A receptor I139C) was 7.4, the “kon determined directly from kobs values using Equ (5)” value (5-HT3A receptors [7]) was 8.24e+07 M/min and the “koff from dissociation, single exponential” value (5-HT3A receptors [7]; dissociation in 2 mM quipazine) was 0.000183 ± 1.7e-05 s⁻¹. The koff (5-HT3A receptors [7]; intercept of plot of kobs versus radioligand concentration) was 0.00017 s⁻¹, the kon (5-HT3A receptors [7]; slope of plot of kobs versus radioligand concentration) was 1.04e+06 M⁻¹ s⁻¹ and the “average kon determined from kobs (Equ (5))” value (5-HT3AB receptors [8]; below 3 nM [^3H]VUF10166) was 8.77e+07 M/min. For the same compound, the “koff from dissociation, double exponential, fast component” value (5-HT3AB receptors [8]; dissociation in 2 mM quipazine) was 0.00378 ± 0.000933 s⁻¹, the “koff from dissociation, double exponential, slow component” value (5-HT3AB receptors [8]; dissociation in 2 mM quipazine) was 0.000167 ± 5e-05 s⁻¹ and the koff (5-HT3AB receptors [8]; first component, [^3H]VUF10166 < 3 nM) was 0.0004 s⁻¹. It also gave a koff (5-HT3AB receptors [8]; second component, [^3H]VUF10166 > 3 nM) of 0.0027 s⁻¹.

In the case of `COc1cc2c3cc1Oc1cc(ccc1O)C[C@@H]1c4c(cc(OC)c(O)c4Oc4ccc(cc4)C[C@@H]3N(C)CC2)CC[N+]1(C)C` [d-Tubocurarine], the IC50 (5-HT3AB receptors [2]) is reported as 3630 nM, the “inhibition of specific” value (5-HT3AB receptors [2]) is reported as “inhibited” and the IC50 (5-HT3A receptors [3]) is reported as 3890 nM. For the same compound, the “inhibition of specific” value (5-HT3A receptors [3]) was “inhibited”, the IC50 (5-HT3AB receptors [4]) was 51300 nM and the IC50 (5-HT3A receptors [5]) was 24500 nM.

In the case of `CC[C@@]1(O)C(=O)OCc2c1cc1n(c2=O)Cc2cc3c(CN(C)C)c(O)ccc3nc2-1` [topotecan], the “effect on 5-HT3A receptors (in words)” value (5-HT3A receptors [9]) is given as “inhibit” and the “effect on 5-HT3AB receptors (in words)” value (5-HT3AB receptors [10]) is given as “potentiate”.

For Picrotoxin, the “inhibition of specific” value (5-HT3AB receptors [2]) was “not” and the “inhibition of specific” value (5-HT3A receptors [3]) was “not and unaffected”.
